For the assay, the system named is CEM cells HIV-1 protection, formazan growth assay. The experiment in a line: NCI AIDS Antiviral Assay. Conditions: for IC50: measured here: growth of uninfected CEM cells. The method, boiled down: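 Steps: treat uninfected and HIV-1-infected human CEM cells at five drug levels; quantify growth by soluble formazan; retest any compound reaching 50% protection; classify actives from the retest.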

The term EC50 denotes the concentration that produces a half-maximal response. As usually defined, the IC50 is the concentration that inhibits the measured activity by half. Read a low IC50 as inhibition by little substance.

The source made the active and inactive calls.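 The calls were made as follows: active = compounds giving half or more protection of infected cells from virus-caused growth loss, again on retest; inactive = the rest.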 Where a SMILES comes first, the peptide text is derived from it. The star is where a group is joined. Fmoc = O=C(OCC1c2ccccc2-c2ccccc21)*; OtBu = CC(C)(C)O*

Regarding `N#CCCC1C(C#N)C2(Cl)CC1(Cl)C(Cl)=C2Cl` (stereo unspecified), the EC50 was above 200 µM and the IC50 amounted to 23.4 µM.
Turning to `Cc1ccc(S(=O)OC2c3ccccc3Cc3ccccc32)cc1` (stereo unspecified), the outcome was inactive.
Consider `Cc1ccc2c(c1)N=C(Nc1ccccc1)N=S2(C)=O` (stereo unspecified), for which the result was inactive.
For `Cc1ccccc1N1CC2CC3C=CC2(C1)O3` (stereo unspecified), the EC50 was above 200 µM and the IC50 is above 200 µM.
As to `O=c1sc2ccccc2n1CCSSCCn1c(=O)sc2ccccc21`, the EC50 is above 200 µM and the IC50 was 9.12 µM.
On to `O=c1[nH]c(=O)n(C2OC(CO)C(O)C2O)cc1OCCCc1ccccc1` (stereo unspecified), for which the EC50 was above 200 µM and the IC50 was above 200 µM.
Consider `CC(=O)OC/C=C(/C)C[P+](c1ccccc1)(c1ccccc1)c1ccccc1`, for which the EC50 is above 200 µM and the IC50 turned out to be 0.955 µM.
The corresponding values for `Cc1cc(=O)[nH]c(-n2[nH]c3c(c2=O)CCCC3)n1` are above 200 µM and 24.5 µM.
As for `CCCC(O)c1cn(-c2cccc(S(=O)(=O)O)c2)nn1` (stereo unspecified), the EC50 was above 832 µM and the IC50 is above 832 µM.
In the case of `COC1CC(C)(NC(=O)C(F)(F)F)C2OC(c3ccccc3)OCC2O1` (stereo unspecified), the EC50 is above 200 µM and the IC50 was above 200 µM.
Consider `O=C(Nc1nnc(-c2ccccc2)s1)c1cc(=O)c2cc([N+](=O)[O-])ccc2o1`, for which the EC50 was above 200 µM and the IC50 is above 200 µM.
`COc1ccc2c(c1OC)C(=O)c1ccoc1C2=O`: the result was inactive.
Consider `CC(=O)Nc1ccc(S(=O)(=O)NNC(=O)NNS(=O)(=O)c2ccc(NC(C)=O)cc2)cc1`, for which the EC50 was above 7.41 µM and the IC50 was above 7.41 µM.
Take `O=C(Nc1nc2ccccc2s1)c1cc([N+](=O)[O-])ccc1Cl`: the EC50 was above 200 µM and the IC50 stood at 3.8 µM.
As to `COc1c(Cl)cc(Cl)c(CCCCCCCC(=O)O)c1Cl`, the EC50 is above 100 µM and the IC50 was above 100 µM.
`Cc1cccc2c1c(=O)c1c(O)cc(O)cc1n2C`: the EC50 was above 200 µM and the IC50 was above 200 µM.
Regarding `Oc1c2cc(Cl)cc1COCc1cc(Cl)cc(c1O)COCc1cc(Cl)cc(c1O)COC2`, the EC50 was above 200 µM and the IC50 turned out to be 38.9 µM.
The corresponding values for `COc1cccc2c1C1=CC(=O)CCC1C(C)(C)O2` (stereo unspecified) are above 195 µM and 110 µM.
Taken in the same sequence, the figures for `Cc1cccc2c1C(=O)/C(=C/c1ccccc1C(=O)O)C2` were above 200 µM and 123 µM.
The corresponding values for `CC(=O)[C@@]12OC(C)(c3ccco3)O[C@@H]1C[C@H]1[C@@H]3CCC4=CC(=O)CC[C@]4(C)[C@H]3CC[C@@]12C` (stereo partly specified) are above 200 µM and 158 µM.
Turning to `COC1=CC(=O)C2C=C3C(CO)=CCC(O)C3(C)CC2C1=O` (stereo unspecified), the EC50 was above 200 µM and the concentration for half-maximal inhibition (IC50) was 3.8 µM.
As for `COc1cc(OC)cc(Oc2nc3c(N)cc(C(F)(F)F)cc3nc2-c2ccccc2)c1`, the EC50 was above 200 µM and the concentration for half-maximal inhibition (IC50) is above 200 µM.
On to `CCOP(=O)(OCC)/C(C#N)=C/c1ccc([N+](=O)[O-])cc1`, for which the EC50 was above 813 µM and the IC50 is 575 µM.
Taken in the same sequence, the figures for `CC(=O)c1ccc(N=Nc2ccc3nonc3c2N)cc1` were above 200 µM and above 200 µM.
For `Cn1c2c(c3ccccc31)CCN1C(=O)CCC21` (stereo unspecified), the EC50 was above 537 µM and the IC50 was found to be 288 µM.
The corresponding values for `COc1ccc(-c2c(C(C)=O)c(C)n(C3OC(COC(C)=O)C(OC(C)=O)C(OC(C)=O)C3OC(C)=O)c(=S)c2C#N)cc1` (stereo unspecified) are above 200 µM and 87.1 µM.
Taken in the same sequence, the figures for `CCc1c(Cc2cc(C)cc(C)c2)n(COCCC[Se]c2ccccc2)c(=O)[nH]c1=O` were 0.407 µM and 12 µM.
The corresponding values for `S=c1ncc2c([nH]1)C1c3ccccc3C2c2ccccc21` are above 200 µM and 120 µM.
For the molecule `COC(=O)C1CC2C=CC1N(C(=O)OCc1ccccc1)C2` (stereo unspecified), the EC50 is above 200 µM and the IC50 is 170 µM.
The corresponding values for `O=C(O)CN1CCNCCN(CC(=O)O)CC1` are above 100 µM and 9.77 µM.
Take `COc1ccc(OC(C(=O)O)C(C)C)c2c1CCCC2=O` (stereo unspecified): the result was inactive.
As to `O=S1c2ccccc2NC(c2ccc3ccccc3c2)CC1c1ccccc1` (stereo unspecified), the EC50 is above 7.08 µM and the half-inhibitory concentration (IC50) was above 7.08 µM.
As to `O=S1(=O)c2ccccc2NC(c2ccc3ccccc3c2)CC1c1ccccc1F` (stereo unspecified), the EC50 is above 6.46 µM and the IC50 was above 6.46 µM.
In the case of `O=C1OC2(CCCCC2)c2ccccc21`, the EC50 was above 339 µM and the IC50 stood at 186 µM.
Turning to `CCn1c2c(c3ccccc3c1=O)C(=O)c1ccccc1-2`, the EC50 was above 26.3 µM and the half-inhibitory concentration (IC50) is above 26.3 µM.
As to `O=C1C=CC(=O)c2c1ccc1c3ccccc3n(CCCCCCCCn3c4ccccc4c4ccc5c(c43)C(=O)C=CC5=O)c21`, the EC50 was above 100 µM and the IC50 stood at 52.5 µM.
Take `CC1CC2CC(=O)CC3(C1)C2CCCN3CCCO` (stereo unspecified): the outcome was inactive.
As to `O=C1CCCN1C(=O)CS(=O)(=O)c1ccccc1`, the EC50 is above 200 µM and the IC50 is above 200 µM.
On to `COC1N(C2C=CC(CO)O2)C(=O)NC(=O)C1(C)Cl` (stereo unspecified), for which the EC50 was 468 µM and the IC50 stood at 1020 µM.
Taken in the same sequence, the figures for `Cn1cnc([N+](=O)[O-])c1Sc1nnnn1C` were above 1020 µM and 5.5 µM.
In the case of `COc1ccccc1NC(=S)NNC(=O)c1cc(-c2ccccc2)nc2ccccc12`, the EC50 was above 200 µM and the 50% inhibitory concentration (IC50) was found to be 11.5 µM.
Taken in the same sequence, the figures for `C=C(C)C1CC2C(C)=C(OC(C)=O)C1n1c(=O)c3cc4ccccc4cc3c(=O)n12` (stereo unspecified) were above 46.8 µM and above 46.8 µM.
Taken in the same sequence, the figures for `C/C(O)=C/c1nc2ccccc2n2nnnc12` were above 110 µM and above 110 µM.
Take `ClC/C=C/C[P+](c1ccccc1)(c1ccccc1)c1ccccc1`: the EC50 was above 200 µM and the IC50 was 3.16 µM.
Regarding `CCCC/C=C\CCCCCCCCCC1=C(O)C(=O)C=C(OC)C1=O`, the EC50 was above 55 µM and the IC50 was 9.33 µM.
In the case of `O=C1c2ccccc2C(c2ccccc2)C1c1ccccc1` (stereo unspecified), the EC50 was above 200 µM and the IC50 was determined as 19.5 µM.
The corresponding values for `CNc1ccc(Cl)cc1S(=O)(=O)c1ccc([N+](=O)[O-])cc1` are above 200 µM and above 200 µM.
Turning to `N#C/C(=C\c1cc(Cl)cc(Cl)c1)c1ccccn1`, the EC50 was above 200 µM and the IC50 came to 8.91 µM.
Taken in the same sequence, the figures for `COc1ccccc1/C=C(\NC(=O)c1ccccc1)C(=O)NC(C)C` were above 200 µM and above 200 µM.
Taken in the same sequence, the figures for `CN(C)CC(NC(NCS)C(=O)NCCNc1ccc(NCCNC(=O)C(NCS)NC(CN(C)C)OCCl)c2c1C(=O)c1c(O)ccc(O)c1C2=O)OCCl` (stereo unspecified) were above 0.0501 µM and 0.0182 µM.
The corresponding values for `Cc1ccc(/C=N/Nc2cc(C)c3cccc(C)c3n2)s1` are above 200 µM and 5.75 µM.
In the case of `COc1cc(OC)cc(OCc2ccc3nc(-c4ccccc4)c(Cl)nc3c2)c1`, the EC50 was above 100 µM and the IC50 was above 100 µM.
In the case of `CC(C)C(NC(=O)OCC1c2ccccc2-c2ccccc21)C(=O)NC(CCC(=O)OC(C)(C)C)C(=O)OC(C)(C)C` (stereo unspecified) (Fmoc-Val-Glu(OtBu)-OtBu; configuration not given here), the EC50 is above 200 µM and the IC50 was determined as 24.5 µM.

These data come from PubChem BioAssay AID179 (DTP/NCI, 2004).
